Results taken from patent publication US11939399B2, “Synthetic peptide sp4 and use thereof” (TAIAN CITY QIHANG BIOTECHNOLOGY CO., priority 2018, dated 2024).
Values joined by “and” are separate entries in the source; they are usually repeats but may differ in a detail not shown here. Equal entries are not always repeated. “Also recorded” adds a separate entry of the source. Ends that are not written are not given here.

Assays:
[1] = test system: subcutaneous human osteosarcoma MG-63 xenograft tumor; assay: Detection of human osteosarcoma MG-63 cell cycle in nude mice; format: in vivo; conditions: positive control Paclitaxel group (10 mg/kgBW twice a week)
Method: (B) Detection of Human Osteosarcoma MG-63 Cell Cycle in Nude Mice
1. Preparation of Single Cell Suspension of Solid Tumor
1.1 Tumor block was washed 3 times with PBS buffer and cut into small blocks (1-2 mm), then washed 3 times with PBS, and transferred into a 50 ml centrifuge tube.
1.2 0.25% trypsin solution was added to digested at 37′C for 20-40 min, and gently shaken once every 5 min, to separate cells. 1.3 2 to 5 ml of serum-containing medium was added to terminate the trypsin digestion.
1.4 The suspension was stood for 2-3 min, and transferred to a new centrifuge tube, and filtered with a 200-mesh nylon mesh twice.
1.5 The filtered suspension was centrifuged at 1000 rpm for 5 min, and removed the supernatant.
1.6 5 ml of PBS buffer was added to centrifuge again, and removed the supernatant.
1.7 1 to 2 ml of culture solution was added according to the amount of cells, and the cells were counted for standby.
2. Detection of Cell Cycle
1) The cell culture solution was collected into a centrifuge tube for standby. […]
5) Flow cytometry detection and analysis: the red fluorescence was detected by a flow cytometer at the excitation wavelength of 488 nm, and the light scattering was detected also. […]

[2] = Animal acute toxicity test, maximal tolerable dose (MTD); format: in vivo, ICR mice; conditions: for Mice weight: 700 mg/kg BW dose group
Method: Embodiment 8 Animal Acute Toxicity Test—Maximal Tolerable Dose (MTD)
I. Experimental Conditions: GLP
1. Test animal: Healthy adult ICR mice, male, weight 19-20 g, n=10;
3. Test sample preparation method;
4. Administration route: tail vein injection in mice;
5. Dosing volume: 0.5 ml/time;
6. Frequency of administration: in accordance with FDA guidelines;
Acute toxicity refers to the toxic reaction produced by a drug within a certain period of time after a single dose or multiple-dose within 24 hours. In narrow sense, a single dose toxicity study is to investigate the acute toxic reactions after a single administration of a test substance. This guideline refers to single dose toxicity study in a broad sense, which can be obtained by single or multiple dosing within 24 hours;
II. Detection of Maximal Tolerable Dose (MTD)
Firstly, the working solutions at three concentrations that would not cause the death of test animals were prepared, and one animal was injected via tail veins (1.5 mL, by 3 times). The first dose was 1.5 mL of working solution with 1150 mg/kgBW, which was injected to mice by 3 times via tail veins within 24 hours. On the next day, if no death was found, the remaining 9 animals were injected with the same dose via tail veins (a total of n=10); if the first animal died, the dose would be reduced.

[3] = Body weight and death of tumor-bearing nude mice in the in vivo efficacy test; parameters: species or system BALB/c nude mice; conditions: each treatment group, 4 weeks intravenous administration
Method: 4-1. Nude mice were randomly divided into 5 groups: model group, positive control group, sp4 low-dose group, sp4 medium-dose group, and sp4 high-dose group, 6 mice each group (low-dose group: 4 mg/kgBW; medium-dose group: 8 mg/kgBW; high-dose group: 16 mg/kgBW; model group: injected with an equal volume of normal saline; positive control group: injected with paclitaxel at 10 mg/kgBW; administrated twice a week).
4-2. after divided into groups, animals were injected via tail veins at 4:00 pm every day; mice in the model group and the administration group were respectively injected with normal saline and drugs for 4 weeks, and the paclitaxel group was administered paclitaxel twice a week.
4-3, measured the tumor size and body weight on the day of grouping and every other day; TV=0.5*a*b^2, a represents long diameter, b represents short diameter.

CC(=O)O[C@H]1C(=O)[C@@]2(C)[C@H]([C@H](OC(=O)c3ccccc3)[C@]3(O)C[C@H](OC(=O)[C@H](O)[C@@H](NC(=O)c4ccccc4)c4ccccc4)C(C)=C1C3(C)C)[C@]1(OC(C)=O)CO[C@@H]1C[C@@H]2O [Paclitaxel]
cell cycle effect in subcutaneous human osteosarcoma xenograft tumor models [1]: significant G1 phase arrest

FLFSLIPSAISG [sp4]
Mice weight ([2]; individual mice No. 1-10, 2018 May 15): 20.5 g and 20.2 g (2×) and 20.6 g and 20.7 g and 20.4 g and 20.9 g and 20.1 g and 20 g and 20.3 g
Mice weight ([2]; individual mice No. 1-10, 2018 May 16): 20.5 g (3×) and 20.7 g and 21.3 g and 21.2 g and 20.8 g and 20.4 g (2×) and 21.5 g
Mice weight ([2]; individual mice No. 1-10, 2018 May 17): 21.1 g (3×) and 21.7 g and 21.3 g and 21.4 g and 20.8 g (2×) and 22.2 g and 21.2 g
Mice weight ([2]; individual mice No. 1-10, 2018 May 18): 21.5 g (3×) and 22.1 g and 21.9 g (3×) and 21.7 g and 22.7 g and 21.1 g
Mice weight ([2]; individual mice No. 1-10, 2018 May 19): 21.9 g and 21.6 g and 22.6 g (2×) and 22.5 g (3×) and 21.8 g (2×) and 23 g
Mice weight ([2]; individual mice No. 1-10, 2018 May 20): 22.3 g and 22.8 g (5×) and 22.4 g and 23.7 g and 22.9 g and 22.5 g
Mice weight ([2]; individual mice No. 1-10, 2018 May 21): 22.7 g and 22.9 g (2×) and 23.5 g and 23.1 g (3×) and 24.1 g and 23.3 g and 23.4 g
Mice weight ([2]; individual mice No. 1-10, 2018 May 22): 23.3 g and 23.5 g (2×) and 24.1 g and 23.6 g and 23.2 g and 24.8 g and 23.8 g (2×) and 23.4 g
Mice weight ([2]; individual mice No. 1-10, 2018 May 23): 24.0 g and 24.1 g (2×) and 24.8 g and 24.2 g (2×) and 23.7 g and 25.1 g and 24.5 g and 24.4 g
Mice weight ([2]; individual mice No. 1-10, 2018 May 24): 24.7 g (4×) and 25.2 g and 23.9 g and 25.6 g and 25.1 g and 24.8 g and 24.6 g
Mice weight ([2]; individual mice No. 1-10, 2018 May 25): 25.3 g and 25.5 g (2×) and 25.8 g and 25.1 g (3×) and 24.8 g and 26.1 g and 24.9 g
Mice weight ([2]; individual mice No. 1-10, 2018 May 26): 25.8 g and 25.9 g (3×) and 26.3 g and 25.6 g (2×) and 25.2 g and 26.5 g and 25.5 g
Mice weight ([2]; individual mice No. 1-10, 2018 May 27): 26.1 g and 26.2 g (2×) and 26.8 g and 26.3 g (2×) and 26.4 g and 27.2 g and 26 g and 25.8 g
Mice weight ([2]; individual mice No. 1-10, 2018 May 28): 27.2 g and 27.1 g and 27.3 g and 26.9 g and 26.8 g (3×) and 27.7 g and 26.4 g and 26.6 g
Mice weight ([2]; individual mice No. 1-10, 2018 May 29): 28.1 g and 27.9 g and 28.5 g and 27.2 g and 27.6 g and 27.5 g (2×) and 28.3 g and 27.1 g (2×)
Survival Rate % ([2]; 700 mg/kg, 3 times/9 h, n=10): 100%
toxic reactions and deaths within 2 weeks after administration ([2]; ICR mice, 700 mg/kgBW intravenous): no toxic reactions and deaths occurred; also recorded: no behavioral abnormalities and deaths were observed
toxic reactions and deaths within 24 hours ([2]; ICR mice, 700 mg/kgBW intravenous, three times within 24 h): no toxic reactions and deaths occurred; also recorded: no toxic reaction and death were observed
Survival or not ([2]; individual animals No. 1-10, 700 mg/kg, 3 times/9 h): Survival
MTD at 336 h ([2]; male, mouse, in vivo, iv, ICR mice, tail vein injection, administered by three times within 24 h): 700 mg/kg
death in the in vivo efficacy test [3]: no death occurred
weight gain of tumor-bearing nude mice vs control group ([3]; P>0.05): not significantly different
